What all share (assay type): biochemical
For experiment [1], the target named is T1, Pseudomonas sp. SE83 CPC acylase AcyII, wild type, SEQ ID NO: 2 (alpha-subunit SEQ ID NO: 4, beta-subunit SEQ ID NO: 5) (Pseudomonas sp., UniProt P15558).
T1 construct: made in house; host or cells: E. coli MC1061
T1 sequence (P15558 2-230): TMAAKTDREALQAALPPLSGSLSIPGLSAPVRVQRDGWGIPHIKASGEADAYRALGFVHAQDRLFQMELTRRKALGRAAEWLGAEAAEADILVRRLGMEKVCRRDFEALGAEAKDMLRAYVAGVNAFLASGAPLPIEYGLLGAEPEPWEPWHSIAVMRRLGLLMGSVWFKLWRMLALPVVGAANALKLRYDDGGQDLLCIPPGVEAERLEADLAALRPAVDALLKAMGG
T1 sequence (P15558 240-774): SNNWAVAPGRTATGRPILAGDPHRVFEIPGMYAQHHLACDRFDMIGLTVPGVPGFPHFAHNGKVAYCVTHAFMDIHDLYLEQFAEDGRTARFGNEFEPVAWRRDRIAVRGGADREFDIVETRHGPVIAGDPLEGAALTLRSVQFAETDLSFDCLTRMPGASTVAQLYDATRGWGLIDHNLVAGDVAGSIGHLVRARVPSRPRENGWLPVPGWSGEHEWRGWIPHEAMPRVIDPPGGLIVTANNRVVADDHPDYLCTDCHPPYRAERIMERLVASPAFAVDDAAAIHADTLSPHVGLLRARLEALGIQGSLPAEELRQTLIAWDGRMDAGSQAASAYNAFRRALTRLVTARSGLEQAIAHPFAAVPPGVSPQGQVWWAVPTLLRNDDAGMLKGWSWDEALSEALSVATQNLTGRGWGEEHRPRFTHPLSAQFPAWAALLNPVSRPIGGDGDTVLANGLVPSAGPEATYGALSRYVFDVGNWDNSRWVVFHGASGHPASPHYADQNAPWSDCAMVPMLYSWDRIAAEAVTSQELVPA
The experiment can be described thus: End-product inhibition by 7-ACA (inhibition constant), wild-type CPC acylase. Particulars: end-product inhibition of CPC conversion; pH 8.5. As to the method: (§1) The enzyme activity of CPC acylase mutant to CPC was measured according to the method described by Park et al. with minor modifications as follows (Park, et al., Kor. J. Appl. Microbiol. Biotechnol. 23: 559-564, 1995). A substrate solution was prepared by dissolving CPC (purity 74.2%; CJ Corp., Korea) in 0.1 M Tris-HCl buffer solution (pH 8.0) at a concentration of 20 mg/ml and adjusting pH to 8 with 1 N NaOH. 20 μl of the CPC solution was mixed with 20 μl of the crude enzyme solution prepared above and the reaction mixture was incubated at 37° C. for 5 min. After the reaction, the mixture (200 μl) of 50 mM NaOH and 20% glacial acetic acid (1:2) was added thereto to stop the reaction. 200 μl of the supernatant recovered from the reaction mixture by centrifugation was mixed with 40 μl of 0.5% (w/v) PDAB (p-dimethylaminobenzaldehyde; Sigma, USA) dissolved in a methanol and the reaction mixture was incubated at 37° C. for 10 min. After the reaction, the absorbance of reaction mixture was measured at 415 nm and quantified by comparing with a calibration curve of standard material. […] Meanwhile, the specific activity of CPC acylase mutant for CPC was determined by measuring the amount of protein remaining in the enzyme solution according to the method described by Bradford (Bradford, M., Anal. Biochem. 72: 248-254, 1976) and representing it as an active unit corresponding to 1 mg of protein. […]

Experiment [2] deals with T2, Pseudomonas sp. SE83 CPC acylase AcyII sixfold mutant S12, V121αA/G139αS/F58βN/I75βT/I176βV/S471βC (alpha-subunit SEQ ID NO: 7, beta-subunit SEQ ID NO: 8) (Pseudomonas sp., UniProt P15558, F297N/G140S/I314T/I415V/S710C/V122A).
T2 construct: made in house; host or cells: E. coli MC1061
T2 sequence (P15558 2-230 V122A/G140S): T1 sequence (P15558 2-230) with V121A, G139S
T2 sequence (P15558 240-774 F297N/I314T/I415V/S710C): T1 sequence (P15558 240-774) with F58N, I75T, I176V, S471C
The experiment can be described thus: End-product inhibition by 7-ACA (inhibition constant), S12 sixfold mutant. Particulars: end-product inhibition of CPC conversion; purified enzyme; pH 8.5. As to the method:
as §1

The test system of experiment [3] is Pseudomonas sp. SE83 CPC acylase AcyII fivefold mutant F169αY/M31βL/F58βM/H70βS/I176βV (mI176). The experiment is described as follows: CPC hydrolysis kinetics (Lineweaver-Burk plot), fivefold mutant. The following applies: substrate CPC; fivefold mutant vs wild-type. As to the method: (§2) The enzyme activity of CPC acylase mutant to CPC was measured according to the method described by Park et al. with minor modifications as follows (Park, et al., Kor. J. Appl. Microbiol. Biotechnol. 23: 559-564, 1995). A substrate solution was prepared by dissolving CPC (purity 74.2%; CJ Corp., Korea) in 0.1 M Tris-HCl buffer solution (pH 8.0) at a concentration of 20 mg/ml and adjusting pH to 8 with 1 N NaOH. 20 μl of the CPC solution was mixed with 20 μl of the crude enzyme solution prepared above and the reaction mixture was incubated at 37° C. for 5 min. After the reaction, the mixture (200 μl) of 50 mM NaOH and 20% glacial acetic acid (1:2) was added thereto to stop the reaction. 200 μl of the supernatant recovered from the reaction mixture by centrifugation was mixed with 40 μl of 0.5% (w/v) PDAB (p-dimethylaminobenzaldehyde; Sigma, USA) dissolved in a methanol and the reaction mixture was incubated at 37° C. for 10 min. After the reaction, the absorbance of reaction mixture was measured at 415 nm and quantified by comparing with a calibration curve of standard material. At this time, 1 unit has been defined as the amount of enzyme capable to produce 1 μmole of 7-ACA from CPC per minute. Meanwhile, the specific activity of CPC acylase mutant for CPC was determined by measuring the amount of protein remaining in the enzyme solution according to the method described by Bradford (Bradford, M., Anal. Biochem. 72: 248-254, 1976) and representing it as an active unit corresponding to 1 mg of protein. The reactivity of CPC acylase mutant to CPC was determined by the following steps of adding the same amount of protein to a reaction mixture, performing an enzyme reaction for a fixed time, measuring the amount of 7-ACA produced in the reaction mixture, and representing it as a relative value. The end-product inhibition by 7-ACA was determined by adding a protein corresponding to the same active unit to a reaction mixture, performing an enzyme reaction for a fixed time; measuring the amount of 7-ACA produced in the reaction mixture, and representing it as a relative value.
(§3) E. coli MC1061 transformant containing the recombinant plasmid introduced with the wild-type or the inventive CPC acylase mutant gene was cultivated in 1 l of a terrific broth (1.2% Bacto-Trypton, 2.4% Yeast Extract, 0.4% glycerol, […]) containing […] of chloramphenicol at 30° C. for 16 hr to obtain a pre-culture solution. 10 ml of the pre-culture solution was inoculated into the same medium, and then, cultured at 25° C., 200 rpm for 48 hr with vigorous shaking. The culture solution was subjected to centrifugation at 4° C., 8,000 rpm for 10 min to separate a precipitate, and the precipitate washed twice with 20 mM Tris-HCl buffer solution (pH 8.0). […]

The target of experiment [4] is T3, Pseudomonas sp. SE83 CPC acylase AcyII fivefold mutant F169αY/M31βL/F58βM/H70βS/I176βV (mI176) (Pseudomonas sp., UniProt P15558, F170Y/F297M/H309S/I415V/M270L).
T3 construct: made in house; host or cells: E. coli MC1061
Described as above. The following applies: substrate CPC; purified enzyme; 0.1 M Tris-HCl pH 8.0, 37° C.; Lineweaver-Burk plot. As to the method:
as §2, §3

Here are results for 2 molecules from US7592168B2, “Cephalosporin C acylase mutant and method for preparing 7-ACA using same” (Sandoz AG, priority 2003, dated 2009).

Residue numbers refer to the chain shown, from its start.

Usually Ki stands for a dissociation constant, usually derived from enzyme kinetics or from competition with a known ligand. A higher Ki goes with weaker binding.

T3 sequence (P15558 240-774 M270L/F297M/H309S/I415V): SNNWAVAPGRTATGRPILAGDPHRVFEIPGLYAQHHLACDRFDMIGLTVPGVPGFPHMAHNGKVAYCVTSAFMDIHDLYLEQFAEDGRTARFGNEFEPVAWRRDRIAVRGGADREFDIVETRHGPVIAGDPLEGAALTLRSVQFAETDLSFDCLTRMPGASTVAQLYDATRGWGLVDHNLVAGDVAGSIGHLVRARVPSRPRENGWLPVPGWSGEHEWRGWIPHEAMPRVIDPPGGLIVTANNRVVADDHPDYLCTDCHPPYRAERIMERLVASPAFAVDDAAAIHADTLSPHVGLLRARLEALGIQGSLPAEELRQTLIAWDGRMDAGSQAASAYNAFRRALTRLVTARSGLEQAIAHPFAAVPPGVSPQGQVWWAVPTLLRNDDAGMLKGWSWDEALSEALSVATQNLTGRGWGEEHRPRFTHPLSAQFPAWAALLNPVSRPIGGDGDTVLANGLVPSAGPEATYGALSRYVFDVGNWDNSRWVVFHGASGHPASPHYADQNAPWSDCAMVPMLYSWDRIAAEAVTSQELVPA
T3 sequence (P15558 2-230 F170Y): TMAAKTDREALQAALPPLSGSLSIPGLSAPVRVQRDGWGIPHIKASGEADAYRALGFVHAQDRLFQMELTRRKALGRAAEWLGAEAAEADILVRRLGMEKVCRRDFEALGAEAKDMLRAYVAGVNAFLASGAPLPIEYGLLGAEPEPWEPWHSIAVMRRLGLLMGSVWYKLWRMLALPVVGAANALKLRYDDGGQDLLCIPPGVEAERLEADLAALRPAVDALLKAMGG

As for `CC(=O)OCC1=C(C(=O)O)N2C(=O)[C@@H](N)[C@H]2SC1` [7-ACA, 7-aminoacephalosporanic acid], the values for the Ki in experiment [1] and in experiment [2] were 400 µM and 1900 µM, respectively.

For `CC(=O)OCC1=C(C(=O)O)N2C(=O)[C@@H](NC(=O)CCC[C@@H](N)C(=O)O)[C@H]2SC1` [CPC, Cephalosporin C], in experiment [3], the “higher reaction efficiency to CPC as compared with the wild-type enzyme” value is reported as “about 15 fold” and the “lower Km value as compared with the wild-type enzyme” value is “about 6.3 fold”. In experiment [4], this molecule gave a Kcat of 2.4 s⁻¹ and a Kcat/Km of 300 M⁻¹ s⁻¹.
